Assay type: physicochemical
Experimental: The temperature was adjusted to 90° C. The 2,4-DHBP concentration in the feed DIOPAT suspension of the diafiltration was about 0.32%. […] Thus, some 2,4-DHBP probably was already precipitated and had to be brought back into solution during the DF process. In the DF process, the DIOPAT suspension was held at 90° C. and was permanently washed with 12 kg fresh water. During the washing process, the DIOPAT concentration stayed constant. To separate the Al-salts and organic by-products, the DIOPAT suspension was pumped from the feed vessel to a ceramic membrane module and from there back to the feed vessel. In the ceramic membrane, the dissolved components (Al-salts and some org. components such as 2,4-DHBP) passed through the membrane. The DIOPAT particles stayed in the suspension and went back to the feed vessel. The permeate was send to the waste water treatment plant. In total, the suspension at the beginning of the membrane process (suspension after precipitation) was washed with a washing factor of 4.5. Then, the Al-salt concentration in the retentate was less than approx. 65 ppm.

solubility in acidic water: about 0.18%
SMILES: O=C(c1ccccc1)c1ccc(O)cc1O [2,4-DHBP, 2,4-dihydroxybenzophenone]

From patent US12304891B2, “Removal of Al-salts, HCl, NaCl and organic by-product from DIOPAT suspension by means of ceramic membranes in strong acidic conditions at high temperature” (BASF SE, priority 2018, dated 2025)
